Test results taken from patent publication US20090188496A1, “INHALABLE TIOTROPIUM AND CONTAINER THEREFOR” (Boehringer Ingelheim International GmbH, priority 2003, published 2009).

Assay: In-use stability test of FPD, commercial capsules in opened blister, 40° C. and 75% Rh
Type: physicochemical
Details: conclusion of tests S1-5 and HBS1-3
Experimental: (§1) From the blister holding 5 capsules one capsule was withdrawn and the remaining 4 capsules were put 4 days into 40° C. and 75% Rh. The blister containing the 4 capsules was then put in an exicator for 2 h before tests were performed. The test was performed with 4 kPa pressure drop over the […]® at room temperature and laboratory ambient conditions.
as §1, with “put 13” for “put 4”
as §1, with “put 21” for “put 4”

## C[N+]1(C)[C@@H]2C[C@@H](OC(=O)C(O)(c3cccs3)c3cccs3)C[C@H]1[C@@H]1O[C@@H]12 [tiotropium]
  Sensitivity of FPD to moisture: extremely sensitive to moisture
